System: TNF-α
Test: Cell-based TNF-α inhibition assay (LPS-induced PBMCs, Meso Scale)
Settings: PBMC, PBMCs pretreated 1 h, LPS 100 ng/mL 18-24 h, percentage of stimulated DMSO control; for inhibition at 0.1 µM: compound concentration 0.1 μM; for inhibition at 1 µM: compound concentration 1 μM
Protocol: Example B1. Cell-Based TNF-α Inhibition Assay
Frozen primary blood mononuclear cells (PBMCs) were quick thawed, washed once with RPMI 1640 media supplemented with 10% fetal bovine serum, 1% penicillin, and 1% streptomycin, and plated in a 96 well plate at 200,000 cells per well. The cells were pretreated with DMSO only as a control or a compound for 1 h, and then induced with LPS (lipopolysaccharide) (100 ng/mL) for 18-24 h. The supernatant was analyzed for TNF-α using the Meso Scale assay. Compound activity was determined as a percentage of the stimulated DMSO control. The results are summarized in Table 1, where A represents a percent inhibition value ≥60%; B represents a percent inhibition value <60% and ≥40%; C represents a percent inhibition value <40% and ≥20%; and D represents a single percent inhibition value <20%.

Row | SMILES | inhibition at 0.1 µM [%] | inhibition at 1 µM [%]
1 | CCOc1cc([C@@H](CS(C)(=O)=O)N2C(=O)c3cccc(NC(=O)CCCCCCCN4CCN(CC(=O)Nc5cccc(C6CCC(=O)NC6=O)c5)CC4)c3C2=O)ccc1OC (stereo partly drawn) [Compound A85, 8-[4-({[3-(2,6-Dioxopiperidin-3-yl)phenyl]carbamoyl}methyl)piperazin-1-yl]-N-{2-[(1S)-1-(3-ethoxy-4-methoxyphenyl)-2-methanesulfonylethyl]-1,3-dioxo-2,3-dihydro-1H-isoindol-4-yl}octanamide] | ≥ 60 | ≥ 60
2 | CCOc1cc([C@@H](CS(C)(=O)=O)N2C(=O)c3cccc(NC(=O)CCCN4CCN(CCNCc5ccc(OCc6scc7c6CN(C6CCC(=O)NC6=O)C7=O)cc5)CC4)c3C2=O)ccc1OC (stereo partly drawn) [Compound A45, 4-[4-(2-{[(4-{[5-(2,6-Dioxopiperidin-3-yl)-4-oxo-4H,5H,6H-thieno[3,4-c]pyrrol-1-yl]methoxy}phenyl)methyl]amino}ethyl)piperazin-1-yl]-N-{2-[(1S)-1-(3-ethoxy-4-methoxy-phenyl)-2-methanesulfonylethyl]-1,3-dioxo-2,3-dihydro-1H-isoindol-4-yl}butanamide] | ≥ 60 | ≥ 60
3 | CCOc1cc([C@@H](CS(C)(=O)=O)N2C(=O)c3cccc(NC(=O)CCCCCN4CCN(CC(=O)Nc5ccc6c(C7CCC(=O)NC7=O)nn(C)c6c5)CC4)c3C2=O)ccc1OC (stereo partly drawn) [Compound A78, 6-[4-({[3-(2,6-Dioxopiperidin-3-yl)-1-methyl-1H-indazol-6-yl]carbamoyl}-methyl)piperazin-1-yl]-N-{2-[(1S)-1-(3-ethoxy-4-methoxyphenyl)-2-methanesulfonylethyl]-1,3-dioxo-2,3-dihydro-1H-isoindol-4-yl}hexanamide] | ≥ 60 | ≥ 60
4 | CCOc1cc([C@@H](CS(C)(=O)=O)N2C(=O)c3cc(CCCCCCCCCCCCNc4cccc(NC5CCC(=O)NC5=O)c4)cc(NC(C)=O)c3C2=O)ccc1OC (stereo partly drawn) [Compound A89, N-{6-[12-({3-[(2,6-Dioxopiperidin-3-yl)amino]phenyl}amino)dodecyl]-2-[(1S)-1-(3-ethoxy-4-methoxyphenyl)-2-methanesulfonylethyl]-1,3-dioxo-2,3-dihydro-1H-isoindol-4-yl}acetamide] | ≥ 60 | ≥ 60
5 | CCOc1cc([C@@H](CS(C)(=O)=O)N2C(=O)c3cccc(NC(=O)CCCCCCCN4CCN(CC(=O)Nc5ccc6c(C7CCC(=O)NC7=O)nn(C)c6c5)CC4)c3C2=O)ccc1OC (stereo partly drawn) [Compound A77, 8-[4-({[3-(2,6-Dioxopiperidin-3-yl)-1-methyl-1H-indazol-6-yl]carbamoyl}-methyl)piperazin-1-yl]-N-{2-[(1S)-1-(3-ethoxy-4-methoxyphenyl)-2-methanesulfonylethyl]-1,3-dioxo-2,3-dihydro-1H-isoindol-4-yl}octanamide] | ≥ 60 | ≥ 60
6 | CCOc1cc([C@@H](CS(C)(=O)=O)N2C(=O)c3cc(CCCN4CCC(c5cc(F)cc6c5CN(C5CCC(=O)NC5=O)C6=O)CC4)cc(NC(C)=O)c3C2=O)ccc1OC (stereo partly drawn) [Compound A5, N-(6-(3-(4-(2-(2,6-Dioxopiperidin-3-yl)-6-fluoro-1-oxoisoindolin-4-yl)piperidin-1-yl)propyl)-2-((S)-1-(3-ethoxy-4-methoxyphenyl)-2-(methylsulfonyl)ethyl)-1,3-dioxoisoindolin-4-yl)acetamide] | ≥ 60 | 
7 | CCOc1cc([C@@H](CS(C)(=O)=O)N2C(=O)c3cccc(NC(=O)CCCCCCCCCN4CCN(CC(=O)Nc5ccc6c(C7CCC(=O)NC7=O)nn(C)c6c5)CC4)c3C2=O)ccc1OC (stereo partly drawn) [Compound A79, 10-[4-({[3-(2,6-Dioxopiperidin-3-yl)-1-methyl-1H-indazol-6-yl]carbamoyl}-methyl)piperazin-1-yl]-N-{2-[(1S)-1-(3-ethoxy-4-methoxyphenyl)-2-methanesulfonylethyl]-1,3-dioxo-2,3-dihydro-1H-isoindol-4-yl}decanamide] | ≥ 60 | ≥ 60
8 | O=C1CCC(N2Cc3c(cc(F)cc3C3CCN(CCCCCCCCCOc4cc(C(=O)Nc5c(Cl)cncc5Cl)ccc4OC(F)F)CC3)C2=O)C(=O)N1 (stereo not drawn) [Compound B4, N-(3,5-Dichloropyridin-4-yl)-4-(difluoromethoxy)-3-((9-(4-(2-(2,6-dioxo-piperidin-3-yl)-6-fluoro-1-oxoisoindolin-4-yl)piperidin-1-yl)nonyl)oxy)benzamide] | ≥ 60 | 
9 | CC(=O)NC(=O)C(C)N1Cc2c(cc(F)cc2C2CCN(CCCCCCCCCOc3cc(C(=O)Nc4c(Cl)cncc4Cl)ccc3OC(F)F)CC2)C1=O (stereo not drawn) [Compound B13, 3-((9-(4-(2-(1-Acetamido-1-oxopropan-2-yl)-6-fluoro-1-oxoisoindolin-4-yl)piperidin-1-yl)nonyl)oxy)-N-(3,5-dichloropyridin-4-yl)-4-(difluoromethoxy)benzamide] | ≥ 60 | ≥ 60
10 | CCOc1cc([C@@H](CS(C)(=O)=O)N2C(=O)c3cccc(NC(=O)CCCCCCOc4cc(-c5scnc5C)ccc4CNC(=O)[C@@H]4C[C@@H](O)CN4C(=O)[C@@H](NC(C)=O)C(C)(C)C)c3C2=O)ccc1OC [Compound A76, (2S,4R)-1-[(2S)-2-Acetamido-3,3-dimethylbutanoyl]-N-[(2-{[6-({2-[(1S)-1-(3-ethoxy-4-methoxyphenyl)-2-methanesulfonylethyl]-1,3-dioxo-2,3-dihydro-1H-isoindol-4-yl}-carbamoyl)hexyl]oxy}-4-(4-methyl-1,3-thiazol-5-yl)phenyl)methyl]-4-hydroxypyrrolidine-2-carboxamide] | 40 to 60 | ≥ 60
11 | CCOc1cc([C@@H](CS(C)(=O)=O)N2C(=O)c3cccc(NC(=O)CN4CCN(CCCCN5CCC(c6cc7c(cc6F)C(=O)N(C6CCC(=O)NC6=O)C7)CC5)CC4)c3C2=O)ccc1OC (stereo partly drawn) [Compound A28, 2-[4-(4-{4-[2-(2,6-Dioxopiperidin-3-yl)-6-fluoro-1-oxo-2,3-dihydro-1H-isoindol-5-yl]piperidin-1-yl}butyl)piperazin-1-yl]-N-{2-[(1S)-1-(3-ethoxy-4-methoxyphenyl)-2-methanesulfonylethyl]-1,3-dioxo-2,3-dihydro-1H-isoindol-4-yl}acetamide] | 40 to 60 | ≥ 60
12 | CCOc1cc([C@@H](CS(C)(=O)=O)N2C(=O)c3cccc(NCCc4ccc(CCCCNCc5ccc(OCc6scc7c6CN(C6CCC(=O)NC6=O)C7=O)cc5)cc4)c3C2=O)ccc1OC (stereo partly drawn) [Compound A51, 4-({2-[4-(4-{[(4-{[5-(2,6-Dioxopiperidin-3-yl)-4-oxo-4H,5H,6H-thieno[3,4-c]-pyrrol-1-yl]methoxy}phenyl)methyl]amino}butyl)phenyl]ethyl}amino)-2-[(1S)-1-(3-ethoxy-4-methoxyphenyl)-2-methanesulfonylethyl]-2,3-dihydro-1H-isoindole-1,3-dione] | ≥ 60 | ≥ 60
13 | CCOc1cc([C@@H](CS(C)(=O)=O)N2C(=O)c3cccc(NC(=O)CCCCCCCN4CCN(CC(=O)Nc5ccc(C6CCC(=O)NC6=O)cc5)CC4)c3C2=O)ccc1OC (stereo partly drawn) [Compound A84, 8-[4-({[4-(2,6-Dioxopiperidin-3-yl)phenyl]carbamoyl}methyl)piperazin-1-yl]-N-{2-[(1S)-1-(3-ethoxy-4-methoxyphenyl)-2-methanesulfonylethyl]-1,3-dioxo-2,3-dihydro-1H-isoindol-4-yl}octanamide] | ≥ 60 | ≥ 60
14 | CCOc1cc([C@@H](CS(C)(=O)=O)N2C(=O)c3cccc(NC(=O)CCCCCCCCNCc4ccc(COc5cccc6c5CN(C5CCC(=O)NC5=O)C6=O)cc4)c3C2=O)ccc1OC (stereo partly drawn) [Compound A16, 9-({[4-({[2-(2,6-Dioxopiperidin-3-yl)-1-oxo-2,3-dihydro-1H-isoindol-4-yl]oxy}-methyl)phenyl]methyl}amino)-N-{2-[(1S)-1-(3-ethoxy-4-methoxyphenyl)-2-methanesulfonylethyl]-1,3-dioxo-2,3-dihydro-1H-isoindol-4-yl}nonanamide] | ≥ 60 | ≥ 60
15 | CCOc1cc([C@@H](CS(C)(=O)=O)N2C(=O)c3cccc(NC(=O)CCCCCN4CCN(CC(=O)Nc5cccc(C6CCC(=O)NC6=O)c5)CC4)c3C2=O)ccc1OC (stereo partly drawn) [Compound A87, 6-[4-({[3-(2,6-Dioxopiperidin-3-yl)phenyl]carbamoyl}methyl)piperazin-1-yl]-N-{2-[(1S)-1-(3-ethoxy-4-methoxyphenyl)-2-methanesulfonylethyl]-1,3-dioxo-2,3-dihydro-1H-isoindol-4-yl}hexanamide] | ≥ 60 | ≥ 60
16 | CCOc1cc([C@@H](CS(C)(=O)=O)N2C(=O)c3cccc(NC(=O)CCCCN4CCN(CC(=O)N[C@H](C(=O)N5C[C@H](O)C[C@H]5C(=O)NCc5ccc(-c6scnc6C)cc5)C(C)(C)C)CC4)c3C2=O)ccc1OC [Compound A63, (2S,4R)-1-[(2S)-2-(2-{4-[4-({2-[(1S)-1-(3-Ethoxy-4-methoxyphenyl)-2-methanesulfonylethyl]-1,3-dioxo-2,3-dihydro-1H-isoindol-4-yl}carbamoyl)butyl]piperazin-1-yl}acet-amido)-3,3-dimethylbutanoyl]-4-hydroxy-N-{[4-(4-methyl-1,3-thiazol-5-yl)phenyl]methyl}-pyrrolidine-2-carboxamide] | ≥ 60 | ≥ 60

From patent publication US20240124418A1 (BioTheryX, Inc., priority 2020, published 2024)
